Reference: US10517889B2, “Modulators of SMAD7 expression” (Ionis Pharmaceuticals, Inc., priority 2017, dated 2019)
Where “and” joins values, the source holds several entries; their conditions need not be identical. Equal entries are not always repeated. Strand notation (5' to 3'): a small letter for the sugar, then the base; units joined by * are phosphorothioate-linked, units joined directly phosphodiester-linked; [ ] holds rarer units or linkages, { } end groups; capitals alone tell only the bases. k = constrained ethyl (cEt); [5mC] = 5-methylcytosine; d = 2'-deoxy (DNA)

Assays:
human SMAD7 mRNA [1] = assay: Antisense inhibition of human SMAD7 mRNA expression in Hep3B cells by 3-10-3 cEt gapmers, 10,000 nM, electroporation (Example 2); assay type: cell-based; settings: approximately 24 hours
Method in brief: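 Hep3B, 20,000 cells/well; electroporation, 10,000 nM ASO; ~24 h. Readout: SMAD7 mRNA by qRT-PCR (RTS5062), RIBOGREEN-normalised; % inhibition vs untreated.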

human SMAD7 mRNA [2] = assay: Dose-dependent inhibition of human SMAD7 mRNA expression in Hep3B cells (Example 3, Study 1 and 2); assay type: cell-based; settings: electroporation; for % inhibition of SMAD7 mRNA expression: approximately 16 hours; for IC50: Study 2 (740-20000 nM)
Protocol: The antisense oligonucleotides were tested in a series of experiments that had similar culture conditions as described below.
(§1) Cells were plated at a density of 20,000 cells per well and transfected using electroporation with 0.31 μM, 1.25 μM, 5.00 μM, or 20.00 μM concentrations of antisense oligonucleotide, as specified in the Tables below. ION 483663 was included in the assays for comparison. After a treatment period of approximately 16 hours, RNA was isolated from the cells and SMAD7 mRNA levels were measured by quantitative real-time PCR. Primer probe set RTS5062 was used to measure human SMAD7 mRNA levels. SMAD7 mRNA levels were adjusted according to total RNA content, as measured by RIBOGREEN®. Results are presented as percent inhibition of SMAD7 mRNA expression, relative to untreated control cells.
The half maximal inhibitory concentration (IC50) of each oligonucleotide is also presented.
as §1, with “0.74” for “0.31”, “2.22” for “1.25”, “6.67” for “5.00”, “below.” for “below. ION 483663 was included in the assays for comparison.”

[3] = 740 nM, Study 2, relative to untreated control cells
[4] = SMAD7 mRNA, Hep3B cells, 10,000 nM antisense oligonucleotide, electroporation, primer probe set RTS5062, relative to untreated control cells
[5] = Hep3B cells, electroporation with 10,000 nM antisense oligonucleotide, SMAD7 mRNA by RT-PCR (RTS5062), relative to untreated control cells
[6] = Hep3B cells, electroporation with 10,000 nM antisense oligonucleotide, primer probe set RTS5062, relative to untreated control cells

| Substance | % Inhibition (human SMAD7 mRNA [1]; Hep3B cells, electroporation with 10,000 nM antisense oligonucleotide, RTS5062, percent inhibition of SMAD7 mRNA relative to untreated control cells) [%] | % inhibition of SMAD7 mRNA expression (human SMAD7 mRNA [2]; [3]) [%] | % inhibition of SMAD7 mRNA expression (human SMAD7 mRNA [2]; 2220 nM, Study 2) [%] | % inhibition of SMAD7 mRNA expression (human SMAD7 mRNA [2]; 6670.0 nM, Study 2) | % inhibition of SMAD7 mRNA expression (human SMAD7 mRNA [2]; 20000.0 nM, Study 2) | IC50 (human SMAD7 mRNA [2]) [µM] | % Inhibition (human SMAD7 mRNA [1]; [4]) [%] | % Inhibition (human SMAD7 mRNA [1]; [5]) [%] | % Inhibition (human SMAD7 mRNA [1]; [6]) [%] | % inhibition of SMAD7 mRNA expression (human SMAD7 mRNA [1]; Hep3B cells, electroporation, 10,000 nM, 3-10-3 cEt gapmers targeting SEQ ID NO: 3 and 4) [%] | % inhibition of SMAD7 mRNA expression (human SMAD7 mRNA [1]; [6]) [%] |
| --- | --- | --- | --- | --- | --- | --- | --- | --- | --- | --- | --- |
| 772842 (kG*kT*kT*dA*dA*dT*dA*dA*dT*dA*dT*d[5mC]*dT*kT*k[5mC]*k[5mC]; antisense) [compound 772842] | 79 | 3 | 23 | 65% | 72% | 6 | – | – | – | – | – |
| 772858 (kA*kG*kT*dG*dT*dT*d[5mC]*dA*dA*d[5mC]*dA*dA*dT*kG*k[5mC]*kT; antisense) [compound 772858] | – | 7 | 26 | 29% | 51% | > 20 | 62 | – | – | – | – |
| 790476 (kT*kT*k[5mC]*dT*dT*dG*dA*dG*d[5mC]*dA*d[5mC]*d[5mC]*dG*kA*kG*kT; antisense) [compound 790476] | – | 8 | 38 | 63% | 69% | 5 | – | 67 | – | – | – |
| 790488 (kT*kT*k[5mC]*d[5mC]*dG*dA*dG*dG*dA*dA*dT*dG*d[5mC]*k[5mC]*kT*kG; antisense) [compound 790488] | – | 12 | 34 | 46% | 67% | 7 | 81 | – | – | – | – |
| 790614 (kG*kA*kG*dA*dA*dT*dG*d[5mC]*dT*dT*d[5mC]*dT*d[5mC]*kT*kT*kG; antisense) [compound 790614] | – | 0 | 29 | 45% | 54% | 11 | – | – | 70 | – | – |
| 790616 (k[5mC]*kT*kA*dA*dA*dT*dT*dT*d[5mC]*d[5mC]*dA*dA*dT*kG*kA*kG; antisense) [compound 790616] | – | 0 | 8 | 26% | 65% | 13 | 66 | – | – | – | – |
| 790636 (kA*kG*k[5mC]*dA*dT*d[5mC]*dT*dG*dG*dA*d[5mC]*dA*dG*kT*k[5mC]*kA; antisense) [compound 790636] | – | 89 | 93 | 95% | 99% | < 0.7 | – | – | – | 95 | – |
| 790666 (kT*kA*kA*dT*dT*dT*dA*dT*dG*dA*d[5mC]*dA*dA*k[5mC]*kG*k[5mC]; antisense) [compound 790666] | – | 13 | 49 | 54% | 74% | 4 | 72 | – | – | – | – |
| 790732 (kG*k[5mC]*kT*dT*dA*dT*dT*dT*d[5mC]*dA*dT*dG*dT*kG*kG*kT; antisense) [compound 790732] | – | 70 | 78 | 88% | 93% | 2 | 69 | – | – | – | – |
| 790736 (kT*k[5mC]*kA*dA*dA*d[5mC]*dT*dT*dT*dG*dA*dA*dG*k[5mC]*k[5mC]*kT; antisense) [compound 790736] | – | 32 | 56 | 68% | 74% | > 20 | 60 | – | – | – | – |
| 798662 (kG*k[5mC]*kT*d[5mC]*d[5mC]*dG*dG*d[5mC]*dT*dG*d[5mC]*d[5mC]*d[5mC]*k[5mC]*kA*k[5mC]; antisense) [compound 798662] | – | 0 | 28 | 22% | 25% | > 20 | – | – | – | – | 62 |
| 798686 (antisense kG*kA*kG*dG*dA*dG*dG*d[5mC]*dG*dA*dG*dG*dA*kG*kA*kA) [compound 798686] | – | 0 | 0 | 2% | 33% | 5 | – | – | – | – | 59 |
| 798687 (antisense kG*kG*k[5mC]*dG*dA*dG*dG*dA*dG*dG*d[5mC]*dG*dA*kG*kG*kA) [compound 798687] | – | 27 | 42 | 60% | 61% | 7 | – | – | – | – | 64 |
| 798696 (antisense kT*k[5mC]*k[5mC]*d[5mC]*d[5mC]*d[5mC]*dT*dG*d[5mC]*dG*d[5mC]*d[5mC]*d[5mC]*kT*k[5mC]*k[5mC]) [compound 798696] | – | 0 | 33 | 58% | 66% | < 0.7 | – | 82 | – | – | – |
| 798733 (antisense k[5mC]*kG*k[5mC]*dG*dG*d[5mC]*dT*dG*dG*d[5mC]*dG*dG*dG*kT*kG*kG) [compound 798733] | – | 58 | 84 | 88% | 95% | 4 | – | 72 | – | – | – |
| 798764 (kA*k[5mC]*kT*dT*dT*dG*d[5mC]*dA*d[5mC]*dA*dG*d[5mC]*dA*kG*kG*kA; antisense) [compound 798764] | – | – | – | 57% and 72% and 54% | 93% and 87% and 65% and 83% | 1 | 75 | – | – | – | 69 |
